Data published in PubChem BioAssay AID248 (DTP/NCI, 2004).
Where “and” joins values, the source holds several entries; their conditions need not be identical. Equal entries are not always repeated. Toxic doses and inconclusive results are not listed. No stated cut-off is given here; in the data, active means T/C of 150% or more; inactive means T/C below 125%.

System: L1210 leukemia ip in BDF1 mice, survival T/C
Test: NCI In Vivo Anticancer Drug Screen. Data for tumor model L1210 Leukemia (intraperitoneal) in B6D2F1 (BDF1) mice
Conditions: endpoint: mean survival time, higher = longer survival
Summary of the method: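 In this screen, tumor-bearing mice given compound are compared to those given vehicle, and their survival values are reported as a treated-to-control quotient.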

[1] = dose: 100.0 mg/kg/injection, schedule: Q01DX009 (ip), vehicle: Klucel (hydroxypropylcellulose) (HPC)
[2] = dose: 200.0 mg/kg/injection, schedule: Q01DX009 (ip), vehicle: Klucel (hydroxypropylcellulose) (HPC)
[3] = dose: 400.0 mg/kg/injection, schedule: Q01DX009 (ip), vehicle: Klucel (hydroxypropylcellulose) (HPC)
[4] = dose: 50.0 mg/kg/injection, schedule: Q01DX001 (ip), vehicle: carboxymethylcellulose (CMC)
[5] = dose: 100.0 mg/kg/injection, schedule: Q04DX003 (ip), vehicle: Klucel (hydroxypropylcellulose) (HPC)
[6] = dose: 100.0 mg/kg/injection, schedule: Q04DX003 (ip), vehicle: saline
[7] = dose: 200.0 mg/kg/injection, schedule: Q04DX003 (ip), vehicle: saline
[8] = dose: 200.0 mg/kg/injection, schedule: Q04DX003 (ip), vehicle: Klucel (hydroxypropylcellulose) (HPC)
[9] = dose: 400.0 mg/kg/injection, schedule: Q04DX003 (ip), vehicle: Klucel (hydroxypropylcellulose) (HPC)

Measured: T/C

COc1ccc([N+](=O)[O-])cc1NC(=O)Nc1ccccc1C(F)(F)F
inactive: [1] 88 % of control and 92 % of control | [2] 92 % of control | [3] 92 % of control

ClC1(Cl)CC2CC1C1C3CC(C4OC34)C21 (configuration not stated)
inactive: [4] 94 % of control and 119 % of control | dose: 100.0 mg/kg/injection, schedule: Q01DX001 (ip), vehicle: carboxymethylcellulose (CMC) 94 % of control | dose: 200.0 mg/kg/injection, schedule: Q01DX001 (ip), vehicle: carboxymethylcellulose (CMC) 105 % of control | dose: 400.0 mg/kg/injection, schedule: Q01DX001 (ip), vehicle: carboxymethylcellulose (CMC) 98 % of control

NC(=O)CCl
inactive: dose: 12.5 mg/kg/injection, schedule: Q04DX003 (ip), vehicle: Klucel (hydroxypropylcellulose) (HPC) 92 % of control | dose: 25.0 mg/kg/injection, schedule: Q04DX003 (ip), vehicle: Klucel (hydroxypropylcellulose) (HPC) 95 % of control | dose: 25.0 mg/kg/injection, schedule: Q04DX003 (ip), vehicle: saline 102 % of control | dose: 50.0 mg/kg/injection, schedule: Q04DX003 (ip), vehicle: Klucel (hydroxypropylcellulose) (HPC) 100 % of control | dose: 50.0 mg/kg/injection, schedule: Q04DX003 (ip), vehicle: saline 97 % of control | [5] 101 % of control | [6] 100 % of control

N#Cc1[nH]cnc1NN=NCCCl
inactive: dose: 12.5 mg/kg/injection, schedule: Q01DX001 (ip), vehicle: saline with Tween-80 109 % of control | dose: 25.0 mg/kg/injection, schedule: Q01DX001 (ip), vehicle: saline with Tween-80 104 % of control | dose: 50.0 mg/kg/injection, schedule: Q01DX001 (ip), vehicle: saline with Tween-80 116 % of control | dose: 100.0 mg/kg/injection, schedule: Q01DX001 (ip), vehicle: saline with Tween-80 118 % of control

CCCC[P+](CCCC)(CCCC)CC(=O)OCC
inactive: dose: 15.0 mg/kg/injection, schedule: Q01DX001 (ip), vehicle: carboxymethylcellulose (CMC) 86 % of control | dose: 60.0 mg/kg/injection, schedule: Q01DX001 (ip), vehicle: carboxymethylcellulose (CMC) 87 % of control

CC(NC(=O)OCc1ccccc1)C(=O)NCCC(N)=O (configuration not stated)
inactive: dose: 100.0 mg/kg/injection, schedule: Q01DX009 (ip), vehicle: saline with Tween-80 91 % of control | dose: 200.0 mg/kg/injection, schedule: Q01DX009 (ip), vehicle: saline with Tween-80 88 % of control

NC(=O)OCCI
inactive: dose: 50.0 mg/kg/injection, schedule: Q01DX009 (ip), vehicle: saline 105 % of control | dose: 50.0 mg/kg/injection, schedule: Q04DX003 (ip), vehicle: other 101 % of control | dose: 100.0 mg/kg/injection, schedule: Q04DX003 (ip), vehicle: other 121 % of control | dose: 200.0 mg/kg/injection, schedule: Q04DX003 (ip), vehicle: other 119 % of control

CC(O)(C(=O)O)c1ccccc1 (configuration not stated) (tested in a mixture with another compound)
inactive: dose: 100.0 mg/kg/injection, schedule: Q01DX009 (ip), vehicle: other 94 % of control | [6] 92 % of control | dose: 200.0 mg/kg/injection, schedule: Q01DX009 (ip), vehicle: other 98 % of control | [7] 103 % of control | dose: 400.0 mg/kg/injection, schedule: Q01DX009 (ip), vehicle: other 102 % of control | dose: 400.0 mg/kg/injection, schedule: Q04DX003 (ip), vehicle: saline 89 % of control

CC(C)=CCCC(C)CCOc1ccc(C(C)C)cc1 (configuration not stated)
inactive: dose: 100.0 mg/kg/injection, schedule: Q04DX002 (ip), vehicle: saline with Tween-80 108 % of control | dose: 200.0 mg/kg/injection, schedule: Q04DX002 (ip), vehicle: saline with Tween-80 96 % of control | dose: 400.0 mg/kg/injection, schedule: Q04DX002 (ip), vehicle: saline with Tween-80 103 % of control

Oc1ccc(Sc2ccc(O)cc2)cc1
inactive: [6] 101 % of control | [7] 92 % of control

CC(=O)NC1CCC(CC2CCCCC2)CC1 (configuration not stated)
inactive: [1] 101 % of control | [5] 93 % of control and 102 % of control | [2] 116 % of control | [8] 103 % of control and 93 % of control | [9] 114 % of control and 93 % of control

[CH3][Sn]([CH3])([Br])[CH2]CCBr
inactive: dose: 0.78 mg/kg/injection, schedule: Q01DX009 (ip), vehicle: saline 100 % of control | dose: 1.56 mg/kg/injection, schedule: Q01DX009 (ip), vehicle: saline 100 % of control

C=CCc1ccc(OC(=O)Nc2cccc(Cl)c2)c(OC)c1
inactive: dose: 100.0 mg/kg/injection, schedule: Q01DX009 (ip), vehicle: carboxymethylcellulose (CMC) 98 % of control and 102 % of control | dose: 100.0 mg/kg/injection, schedule: Q04DX002 (ip), vehicle: Klucel (hydroxypropylcellulose) (HPC) 95 % of control | dose: 100.0 mg/kg/injection, schedule: Q04DX002 (ip), vehicle: carboxymethylcellulose (CMC) 102 % of control | dose: 100.0 mg/kg/injection, schedule: Q04DX003 (ip), vehicle: carboxymethylcellulose (CMC) 101 % of control | dose: 200.0 mg/kg/injection, schedule: Q01DX009 (ip), vehicle: carboxymethylcellulose (CMC) 100 % of control and 92 % of control | dose: 200.0 mg/kg/injection, schedule: Q04DX002 (ip), vehicle: Klucel (hydroxypropylcellulose) (HPC) 92 % of control | dose: 200.0 mg/kg/injection, schedule: Q04DX002 (ip), vehicle: carboxymethylcellulose (CMC) 112 % of control | dose: 200.0 mg/kg/injection, schedule: Q04DX003 (ip), vehicle: carboxymethylcellulose (CMC) 95 % of control | dose: 400.0 mg/kg/injection, schedule: Q01DX009 (ip), vehicle: carboxymethylcellulose (CMC) 95 % of control and 98 % of control | dose: 400.0 mg/kg/injection, schedule: Q04DX002 (ip), vehicle: Klucel (hydroxypropylcellulose) (HPC) 95 % of control | dose: 400.0 mg/kg/injection, schedule: Q04DX002 (ip), vehicle: carboxymethylcellulose (CMC) 105 % of control | dose: 400.0 mg/kg/injection, schedule: Q04DX003 (ip), vehicle: carboxymethylcellulose (CMC) 100 % of control

COc1ccc(C2(Br)C(=O)NN=C2C)cc1 (configuration not stated)
inactive: dose: 100.0 mg/kg/injection, schedule: Q01DX001 (ip), vehicle: saline 95 % of control | dose: 200.0 mg/kg/injection, schedule: Q01DX001 (ip), vehicle: saline 100 % of control | dose: 400.0 mg/kg/injection, schedule: Q01DX001 (ip), vehicle: saline 95 % of control

NC(N)=N/N=C/c1ccccn1
inactive: dose: 15.0 mg/kg/injection, schedule: Q01DX Z (ip), vehicle: saline 94 % of control | dose: 30.0 mg/kg/injection, schedule: Q01DX Z (ip), vehicle: saline 102 % of control | dose: 60.0 mg/kg/injection, schedule: Q01DX Z (ip), vehicle: saline 95 % of control and 101 % of control | dose: 60.0 mg/kg/injection, schedule: Q01DX Z (oral), vehicle: saline 103 % of control | dose: 120.0 mg/kg/injection, schedule: Q01DX Z (ip), vehicle: saline 96 % of control and 98 % of control | dose: 120.0 mg/kg/injection, schedule: Q01DX Z (oral), vehicle: saline 108 % of control | dose: 240.0 mg/kg/injection, schedule: Q01DX Z (oral), vehicle: saline 103 % of control | dose: 480.0 mg/kg/injection, schedule: Q01DX Z (oral), vehicle: saline 107 % of control

O=c1[nH]cnc2nncnc12
inactive: [4] 93 % of control

C=C(NC(C)=O)C(=O)OC
inactive: dose: 75.0 mg/kg/injection, schedule: Q04DX003 (ip), vehicle: saline 102 % of control | dose: 150.0 mg/kg/injection, schedule: Q04DX003 (ip), vehicle: saline 100 % of control | dose: 300.0 mg/kg/injection, schedule: Q04DX003 (ip), vehicle: saline 97 % of control

CC(C#N)(/C=C/c1ccccc1)Nc1ccccc1N (configuration not stated)
inactive: [1] 95 % of control | [5] 94 % of control | [2] 95 % of control | [8] 98 % of control | [3] 96 % of control | [9] 93 % of control
